# Experiments:
# myofibroblast formation = settings: capsular contracture with breast implants, Ajmal et al. (2003); cited from earlier work
# fibrinolysis = assay: prevention / reversal of fibrinolysis; settings: one tenth of the doses used in the non-GLP acute porcine study
SMILES,myofibroblast formation (myofibroblast formation),effect in reversing fibrinolysis (fibrinolysis)
"O=S(=O)([O-])CCS.[Na+] [MESNA, sodium 2-mercaptoethane sulfonate]",diminish myofibroblast formation,–
"NC[C@H]1CC[C@H](C(=O)O)CC1 [tranexamic acid, trans-4-(aminomethyl)cyclohexanecarboxylic acid]",–,effective in reversing fibrinolysis

# From patent publication US20220211477A1, “SURGICAL SYSTEM AND METHODS OF USE” (priority 2021, published 2022)
